From patent US10441597B2, “Ciclesonide for the treatment of airway disease in horses” (Boehringer Ingelheim Vetmedica GmbH, priority 2012, dated 2019)
“Also recorded” adds a separate entry of the source.

Tests used:
serum cortisol = test: Moldy hay challenge study in RAO horses: serum cortisol; settings: for Serum cortisol levels: any measured time point
[1] = Concentration of ciclesonide and metabolite in equine plasma (HPLC-MS/MS); settings: for Ciclesonide concentration in equine plasma: 2nd ciclesonide study, n=8 mean
IAD horse = test: Impulse oscillometry lung function in one IAD horse (4th ciclesonide study); assay type: in vivo; settings: 2700 μg ciclesonide twice daily for 14 days
Excerpt: Ciclesonide is investigated in a baseline controlled, blinded study examining one (1) IAD horse. […] Lung function variables using the impulse oscillometry system (respiratory resistance (Rrs) and reactance (Xrs) are examined during the study.

[2] = tested on: segmented neutrophils and lymphocytes; test: Moldy hay challenge study in RAO horses: segmented neutrophil and lymphocyte counts; assay type: in vivo, horse; settings: for Lymphocytes / Segmented neutrophils: nozzle B, n=7 mean
Experimental: (§1) The commercially available […]® is used in the study.
The segmented neutrophil counts and the lymphocyte counts are determined in the studies above: ciclesonide treatment versus dexamethasone treatment.

cortisol levels = settings: humans; after aerosol administration/inhalation; cited from earlier work
RAO horses [3] = test: Moldy hay challenge study in RAO horses: clinical score (breathing effort score, weighted clinical score); assay type: in vivo, horse
Excerpt: as §1

RAO horses [4] = test: Moldy hay challenge study in RAO horses: lung function variables (transpulmonary pressure, lung resistance, lung elastance); assay type: in vivo, horse; settings: for Difference in lung function variables versus dexamethasone group: after 7 or 14 days; for Efficacy relative to dexamethasone measured in lung function variables and clinical score: moldy hay challenge model, RESPIMAT inhaler with Equine Inhaler device, examples 1 and 3
Excerpt: as §1

[5] = frequencies 0.2 to 2 Hz, in contrast to pretreatment values
[6] = 1st ciclesonide study, ciclesonide 450/900/1800 μg/horse twice daily
[7] = 2nd ciclesonide study, ciclesonide 1687.5 B/2700 A/2700 B μg twice daily
[8] = 3rd ciclesonide study, ciclesonide groups
[9] = D 0, 2700 μg ciclesonide/horse twice daily inhaled 14 days, 3rd ciclesonide study
[10] = D 0, 3712.5 μg ciclesonide/horse once daily in the evening inhaled 14 days, 3rd ciclesonide study
[11] = D 0, 3712.5 μg ciclesonide/horse once daily in the morning inhaled 14 days, 3rd ciclesonide study
[12] = D 14, 2700 μg ciclesonide/horse twice daily inhaled 14 days, 3rd ciclesonide study
[13] = D 14, 3712.5 μg ciclesonide/horse once daily in the evening inhaled 14 days, 3rd ciclesonide study
[14] = D 14, 3712.5 μg ciclesonide/horse once daily in the morning inhaled 14 days, 3rd ciclesonide study
[15] = D 21, 2700 μg ciclesonide/horse twice daily inhaled 14 days, 3rd ciclesonide study
[16] = D 21, 3712.5 μg ciclesonide/horse once daily in the evening inhaled 14 days, 3rd ciclesonide study
[17] = D 21, 3712.5 μg ciclesonide/horse once daily in the morning inhaled 14 days, 3rd ciclesonide study

With `CC(C)C(=O)OCC(=O)[C@@]12O[C@H](C3CCCCC3)O[C@@H]1C[C@H]1[C@@H]3CCC4=CC(=O)C=C[C@]4(C)[C@H]3[C@@H](O)C[C@@]12C` [ciclesonide, (11β,16α)-16,17-[[(R)-Cyclohexylmethylene]bis(oxy)]-11-hydroxy-21-(2-methyl-1-oxopropoxy)pregna-1,4-diene-3,20-dione] the Serum cortisol levels (serum cortisol; 1st ciclesonide study, any ciclesonide group (450/900/1800 μg/horse twice daily)) was “no significant reduction”, the Serum cortisol levels (serum cortisol; 2nd ciclesonide study, any ciclesonide group (1687.5 B/2700 A/2700 B μg twice daily)) was “no significant reduction” and the Serum cortisol levels (serum cortisol; 3rd ciclesonide study, any ciclesonide group (2700 μg twice daily/3712.5 μg morning/3712.5 μg evening)) was “no significant reduction”. For the same compound, the “Cortisol level compared to values prior to treatment” value (serum cortisol; after administration of the highest ciclesonide dose, example 3) was “does not change significantly”, the “Serum cortisol level of horses” value (serum cortisol; ciclesonide, treatment for two weeks with different dose levels, Examples 2-3) was “no decrease” and the “Ciclesonide concentration in equine plasma” value (“Ciclesonide concentration” below) ([1]; day 1, 0 min, ciclesonide 2700 μg nozzle B twice daily inhaled) was <0.500 nmol/L. The “Ciclesonide concentration” value ([1]; day 1, 1 h, ciclesonide 2700 μg nozzle B twice daily inhaled) was <0.500 nmol/L, the “Ciclesonide concentration” value ([1]; day 1, 2 h, ciclesonide 1687.5 μg nozzle B twice daily inhaled) was <0.500 nmol/L and the “Ciclesonide concentration” value ([1]; day 1, 2 h, ciclesonide 2700 μg nozzle B twice daily inhaled) was <0.500 nmol/L. For the same compound, the “Ciclesonide concentration” value ([1]; day 1, 4 h, ciclesonide 1687.5 μg nozzle B twice daily inhaled) was <0.500 nmol/L, the “Ciclesonide concentration” value ([1]; day 1, 4 h, ciclesonide 2700 μg nozzle B twice daily inhaled) was <0.500 nmol/L and the “Ciclesonide concentration” value ([1]; day 11, 0 min, ciclesonide 2700 μg nozzle A twice daily inhaled) was <0.500 nmol/L. The “Ciclesonide concentration” value ([1]; day 11, 0 min, ciclesonide 2700 μg nozzle B twice daily inhaled) was <0.500 nmol/L, the “Ciclesonide concentration” value ([1]; day 11, 1 h, ciclesonide 2700 μg nozzle A twice daily inhaled) was <0.500 nmol/L and the “Ciclesonide concentration” value ([1]; day 11, 1 h, ciclesonide 2700 μg nozzle B twice daily inhaled) was <0.500 nmol/L. The “Ciclesonide concentration” value ([1]; day 11, 2 h, ciclesonide 2700 μg nozzle A twice daily inhaled) was <0.500 nmol/L, the “Ciclesonide concentration” value ([1]; day 11, 2 h, ciclesonide 2700 μg nozzle B twice daily inhaled) was <0.500 nmol/L and the “Ciclesonide concentration” value ([1]; day 11, 4 h, ciclesonide 2700 μg nozzle A twice daily inhaled) was <0.500 nmol/L. The “Ciclesonide concentration” value ([1]; day 11, 4 h, ciclesonide 2700 μg nozzle B twice daily inhaled) was <0.500 nmol/L, the “Conversion of ciclesonide into the effective molecule C21-C21-desisobutyrylciclesonide” value ([1]; in horses, example 5) was “can be converted” and the “Mean respiratory reactance in inspiration versus expiration” value (IAD horse; [5]) was “not different”. For the same compound, the “Mean respiratory resistance in inspiration versus expiration” value (IAD horse; [5]) was “not different”, the “Mean respiratory resistance (Rrs) compared to pretreatment values” (IAD horse; frequencies 0.2 to 20 Hz, mean of three measurements) was “decreased” and the “Mean respiratory reactance (Xrs) compared to pretreatment values” (IAD horse; frequencies 5 to 10 Hz, mean of three measurements) was “decreased”. The “Counts of lymphocytes after administration” value (“Counts of lymphocytes” for short) [2, 6] was “no change”, the “Counts of segmented neutrophils after administration” value (“Counts of segmented neutrophils” below) [2, 6] was “no or minor increase” and the “Counts of lymphocytes” value [2, 7] was “no change”. The “Counts of segmented neutrophils” value [2, 7] was “no or minor increase”, the “Counts of lymphocytes” value [2, 8] was “no change” and the “Counts of segmented neutrophils” value [2, 8] was “no or minor increase”. For the same compound, the Lymphocytes [2, 9] was 2.55e+09 L⁻¹, the Segmented neutrophils [2, 9] was 3.97e+09 L⁻¹ and the Lymphocytes [2, 10] was 2.55e+09 L⁻¹. For the same compound, the Segmented neutrophils [2, 10] was 3.73e+09 L⁻¹, the Lymphocytes [2, 11] was 2.21e+09 L⁻¹ and the Segmented neutrophils [2, 11] was 4.37e+09 L⁻¹. It also gave a Lymphocytes [2, 12] of 2.54e+09 L⁻¹, a Segmented neutrophils [2, 12] of 4.57e+09 L⁻¹ and a Lymphocytes [2, 13] of 2.43e+09 L⁻¹. The Segmented neutrophils [2, 13] was 4.37e+09 L⁻¹, the Lymphocytes [2, 14] was 2.48e+09 L⁻¹ and the Segmented neutrophils [2, 14] was 4.45e+09 L⁻¹. The Lymphocytes [2, 15] was 2.49e+09 L⁻¹, the Segmented neutrophils [2, 15] was 3.47e+09 L⁻¹ and the Lymphocytes [2, 16] was 2.48e+09 L⁻¹. For the same compound, the Segmented neutrophils [2, 16] was 3.41e+09 L⁻¹, the Lymphocytes [2, 17] was 2.66e+09 L⁻¹ and the Segmented neutrophils [2, 17] was 3.75e+09 L⁻¹. For the same compound, the “Alteration in the immune system measured by neutrophilia and lymphopenia” value ([2]; ciclesonide, treatment for two weeks with different dose levels, 1st and 2nd ciclesonide studies (Table 2)) was “no alteration; also recorded: not observed”, the Measured cortisol levels (cortisol levels) was “no or clinically not relevant cortisol suppression” and the Breathing effort score (RAO horses [3]; 1st ciclesonide study, ciclesonide 450/900/1800 μg/horse twice daily, any measured time point) was “no significant changes”. For the same compound, the “Weighted clinical score compared to pretreatment values” (RAO horses [3]; 2nd ciclesonide study, all three ciclesonide groups, after 14 days, p=0.0001 to p<0.0001) was “significantly reduced”, the “Difference in weighted clinical score versus dexamethasone group” value (RAO horses [3]; 2nd ciclesonide study, ciclesonide treatment groups, after 14 days) was “no significant difference” and the “Weighted clinical score compared to pretreatment values” (RAO horses [3]; 3rd ciclesonide study, ciclesonide 2700 μg twice daily, after 7 and 14 days, p=0.0001 (7 days), p=0.0003 (14 days)) was “significantly reduced”. The “Difference in weighted clinical score versus placebo group” value (RAO horses [3]; 3rd ciclesonide study, ciclesonide treatment groups, after 14 days, p=0.0002 (2700 μg, 3712.5 μg evening), p=0.0006 (3712.5 μg morning)) was “significant difference”, the “ΔPL and EL compared to pretreatment values” (RAO horses [4]; 1st ciclesonide study, ciclesonide 1800 μg/horse twice daily inhaled (only the highest dose), after 14 days, p=0.0005 and p=0.0004) was “statistically significant reduction” and the “Difference in ΔPL and EL versus dexamethasone group” value (RAO horses [4]; 1st ciclesonide study, ciclesonide 1800 μg/horse twice daily, after 14 days) was “no significant difference”. For the same compound, the “All lung function variables compared to pretreatment values” (RAO horses [4]; 2nd ciclesonide study, all ciclesonide groups (1687.5 μg nozzle B/2700 μg nozzle A/2700 μg nozzle B twice daily), after 14 days, p=0.0009 to p<0.0001) was “significantly reduced”, the “Difference in lung function variables versus dexamethasone group” value (RAO horses [4]; 2nd ciclesonide study, all ciclesonide groups) was “no significant difference” and the “Difference in lung function variables (ΔPL, RL) versus placebo group” value (RAO horses [4]; 3rd ciclesonide study, all ciclesonide groups, after 14 days, p<0.0001 (2700 μg, 3712.5 μg evening), p=0.0005 ΔPL / p=0.0003 RL (3712.5 μg morning)) was “significant difference”. The “Change in ΔPL compared to pretreatment values” (RAO horses [4]; 3rd ciclesonide study, ciclesonide 2700 μg twice daily, after 7 days, p<0.0001) was “significantly reduced”, the “ΔPL and RL compared to pretreatment values” (RAO horses [4]; 3rd ciclesonide study, ciclesonide 2700 μg twice daily, after 14 days, p<0.0001) was “significantly reduced” and the “Reduction of ΔPL and RL compared to pretreatment values” (RAO horses [4]; 3rd ciclesonide study, ciclesonide 2700 μg, after 7 days, p<0.0001) was “statistically significant”. The “Reduction of RL compared to pretreatment values” (RAO horses [4]; 3rd ciclesonide study, ciclesonide 2700 μg, after 7 days, p=0.0002) was “statistically significant”, the “Change in ΔPL compared to pretreatment values” (RAO horses [4]; 3rd ciclesonide study, ciclesonide 3712.5 μg once daily in the evening, after 7 days, p=0.001) was “significantly reduced” and the “RL compared to pretreatment values” (RAO horses [4]; 3rd ciclesonide study, ciclesonide 3712.5n (once daily in the evening), after 14 days, p=0.0001) was “significantly reduced”. For the same compound, the “Lung function variables compared to pretreatment values and to placebo group” value (RAO horses [4]; 3rd ciclesonide study, ciclesonide treatment groups, after 14 days) was “significantly reduced” and the “Efficacy relative to dexamethasone measured in lung function variables and clinical score” value (RAO horses [4]) was “comparable efficacy”.

For `CCCC1O[C@@H]2C[C@H]3[C@@H]4CCC5=CC(=O)C=C[C@]5(C)[C@H]4[C@@H](O)C[C@]3(C)[C@]2(C(=O)CO)O1` (stereo partly shown) [budesonide], the “Clinical score compared to pretreatment values” (RAO horses [3]; Budesonide study, all three budesonide groups (450/900/1800 μg/horse twice daily), after 7 and 14 days, p=0.002 to p<0.0001) was “significantly reduced”, the “Difference in clinical score versus dexamethasone group” value (RAO horses [3]; Budesonide study, budesonide 900 and 1800 μg/horse twice daily, after 7 and 14 days) was “no significant difference” and the “All lung function variables compared to pretreatment values” (RAO horses [4]; Budesonide study, budesonide 1800 μg/horse ex RESPIMAT twice daily inhaled, after 14 days, p≤0.0001) was “significantly reduced”. For the same compound, the “Difference in lung function variables versus dexamethasone group” value (RAO horses [4]; Budesonide study, budesonide 1800 μg/horse twice daily) was “no significant difference” and the “Efficacy relative to dexamethasone measured in lung function variables and clinical score” value (RAO horses [4]) was “comparable efficacy”.
